The text below walks through data of EP0444482B1, “Oxetanones” (F. HOFFMANN-LA ROCHE AG, priority 1990, dated 1991).

Structures are written as SMILES.

Tested on in the first data set: not listed separately
Nature of the data set: Acute toxicity after a single oral administration. As to conditions: mouse, in vivo, mice, read-out: akute Toxizität. How it is done: Die akute Toxizität (nach einmaliger oraler Verabreichung an Mäusen) beträgt mehr als 5000 mg/kg für die Produkte der Beispiele 3d, 3h, 3i, 3l, 4a und 10a, b, e und f.
Regarding `CCCCCCCCCCCCCCCCC[C@@H](C[C@@H]1OC(=O)[C@H]1CC)OC(=O)C1(C(N)=O)CCCCC1` [Beispiel 4a, (S)-1-[[(2S,3S)-3-Aethyl-4-oxo-2-oxetanyl]methyl]octadecyl-1-carbamoylcyclohexancarboxylat], the LD50 is above 5000 mg/kg.
Still for that read-out and setting: for `CCCCCCCCCCC[C@@H](C[C@@H]1OC(=O)[C@H]1CCCCCC)OC(=O)C(C)C(N)=O` (mixture of isomers) [Beispiel 3i, (S)-1-[[(2S,3S)-3-Hexyl-4-oxo-2-oxetanyl]methyl]dodecyl-(RS)-2-methylmalonamat] the value was above 5000 mg/kg; for `CCCCCCCCCCCCCCCCC[C@@H](C[C@@H]1OC(=O)[C@H]1CC)OC(=O)C(C)C(N)=O` (stereo partly drawn) [Beispiel 10e, (S)-1-[[(2S,3S)-3-Aethyl-4-oxo-2-oxetanyl]methyl]octadecyl-(RS)-2-methylmalonamat], above 5000 mg/kg.

For another data set, the target named is T1, Schweinepankreaslipase (Sus scrofa, UniProt P00591).
T1 sequence (P00591 1-450): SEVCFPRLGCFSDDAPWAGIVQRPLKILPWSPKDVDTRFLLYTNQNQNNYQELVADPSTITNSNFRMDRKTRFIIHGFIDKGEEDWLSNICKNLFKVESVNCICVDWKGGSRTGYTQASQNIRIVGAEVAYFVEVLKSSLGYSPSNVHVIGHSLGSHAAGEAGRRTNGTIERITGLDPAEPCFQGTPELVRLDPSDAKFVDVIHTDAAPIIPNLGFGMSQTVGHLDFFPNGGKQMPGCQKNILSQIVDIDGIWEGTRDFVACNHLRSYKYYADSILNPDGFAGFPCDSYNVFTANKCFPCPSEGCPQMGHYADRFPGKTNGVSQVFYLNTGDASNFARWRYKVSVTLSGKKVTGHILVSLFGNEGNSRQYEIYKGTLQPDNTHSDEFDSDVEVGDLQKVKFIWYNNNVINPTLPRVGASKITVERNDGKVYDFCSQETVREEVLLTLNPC
Description: Inhibition of pancreatic lipase (titrimetric measurement of oleic acid released from triolein). It is filed as biochemical, Schwein. Particulars: substrate triolein emulsion, pH 8, NaOH consumption over 10 min, 1-3 µg lipase; concentration giving half-maximal inhibition of lipase activity; read-out: IC₅₀ (converted). How it is done:
Die Hemmung der Pankreaslipase durch die Oxetanone der Formel I kann experimentell gezeigt werden, indem man die bei der Spaltung von Triolein durch Schweinepankreaslipase freigesetzte Oelsäure titrimetrisch erfasst. Zu einer Emulsion, welche 1 mM Taurodeoxycholat, 9 mM Taurocholat, 0,1 mM Cholesterin, 1 mM Eilezithin, 15 mg/ml BSA, 2 mM Tris-HCl, 100 mM Natriumchlorid, 1 mM Calciumchlorid und das Substrat Triolein enthält, gibt man die in Aethanol oder Dimethylsulfoxid (10% des Emulsionsvolumens) gelöste Verbindung der Formel I und startet die Reaktion durch Zugabe von 1-3 µg Schweinepankreaslipase. Das pH wird während der Reaktion durch Zugabe von Natronlauge bei 8 gehalten. Aus dem während 10 Minuten ermittelten Verbrauch an Natronlauge wird die IC₅₀ berechnet. Die IC₅₀ ist diejenige Konzentration, bei der die Lipaseaktivität halbmaximal gehemmt wird. Die nachfolgende Tabelle enthält die für die Verbindungen der Formel I ermittelten IC₅₀-Werte in µg/ml.
For `CCCCCCCCCCCCCCCCC[C@@H](C[C@@H]1OC(=O)[C@H]1CC)OC(=O)CC(=O)NC` [Beispiel 10c, (S)-1-[[(2S,3S)-3-Aethyl-4-oxo-2-oxetanyl]methyl]octadecyl-N-methylmalonamat], the IC50 is 208 nM.
Same read-out and setting: for `CCCCCCCCCCCCCCCCC[C@@H](C[C@@H]1OC(=O)[C@H]1CC)OC(=O)C(C(N)=O)C(C)(C)C` (single isomer, unassigned) [Beispiel 37] the value was 64.9 nM; for `CCCCCCCCCCCCCCCCC[C@@H](C[C@@H]1OC(=O)[C@H]1CC)OC(=O)C(C(N)=O)C(C)C` (single isomer, unassigned) [Beispiel 1a], 62.8 nM; for `CCCCCCCCCCCCCCCCC[C@@H](C[C@@H]1OC(=O)[C@H]1CC)OC(=O)[C@@H]1CCC(=O)N1` [Beispiel 78d, 5-Oxo-L-prolin-(S)-1-[[(2S,3S)-3-äthyl-4-oxetanyl]methyl]octadecyl-ester], 103 nM.
Same read-out and setting: the value for `CCCCCCCCCCC[C@@H](C[C@@H]1OC(=O)[C@H]1CCCCCC)OC(=O)C(C(N)=O)C(C)C` (single isomer, unassigned) [Beispiel 2b] was 131 nM.
On to `CCCCC/C=C\C/C=C\CCCCCCC[C@@H](C[C@@H]1OC(=O)[C@H]1CC)OC(=O)C(C(N)=O)C(C)C` (single isomer, unassigned) [Beispiel 2g2], for which the IC50 was 25.7 nM.
On to `CCCCCCCCCCC[C@@H](CC1OC(=O)C1SCCCCC)OC(=O)C(C(N)=O)C(C)C` (stereo partly drawn) [Beispiel 6b, (S)-1-[[(2S,3S oder 2R,3R)-4-Oxo-3-pentylthio-2-oxetanyl]methyl]-dodecyl-[S:R oder R:S(2:1)]-2-isopropylmalonamat], for which the IC50 was 112 nM.
Consider `CCCCCCCCCCCCCCCCC[C@@H](C[C@@H]1OC(=O)[C@H]1CC)OC(=O)C1(C(N)=O)CCCCC1` [Beispiel 4a, (S)-1-[[(2S,3S)-3-Aethyl-4-oxo-2-oxetanyl]methyl]octadecyl-1-carbamoylcyclohexancarboxylat], for which the IC50 is 299 nM.
Still for that read-out and setting: the value for `CCCCCCCCCCC[C@@H](C[C@@H]1OC(=O)[C@H]1CCCCCC)OC(=O)C(C)C(N)=O` (mixture of isomers) [Beispiel 3i, (S)-1-[[(2S,3S)-3-Hexyl-4-oxo-2-oxetanyl]methyl]dodecyl-(RS)-2-methylmalonamat] was 926 nM; that for `CCCCCCCCCCCCCCCCC[C@@H](C[C@@H]1OC(=O)[C@H]1CC)OC(=O)C(C)C(N)=O` (stereo partly drawn) [Beispiel 10e, (S)-1-[[(2S,3S)-3-Aethyl-4-oxo-2-oxetanyl]methyl]octadecyl-(RS)-2-methylmalonamat] was 56 nM; that for `CCCCCCCCCCCCCCCCC[C@@H](C[C@@H]1OC(=O)[C@H]1CC)OC(=O)[C@H]1CCC(=O)N1` [Beispiel 78c, 5-Oxo-D-prolin-(S)-1-[[(2S,3S)-3-äthyl-4-oxo-2-oxetanyl]methyl]octadecyl-ester] was 567 nM.
Take `CCCCCCCCCCCCCCCCC[C@@H](C[C@@H]1OC(=O)[C@H]1CC)OC(=O)CC(=O)N(C)C` [Beispiel 10d, (S)-1-[[(2S,3S)-3-Aethyl-4-oxo-2-oxetanyl]methyl]octadecyl-N,N-dimethylmalonamat]: the IC50 is 948 nM.
In the case of `CCCCCCCCCCC[C@@H](C[C@@H]1OC(=O)[C@H]1CCCCCC)OC(=O)CCSCCC(N)=O` [Beispiel 51, (S)-1-[[(2S,3S)-3-Hexyl-4-oxo-2-oxetanyl]methyl]dodecyl-3-[(2-carbamoyläthyl)thio]propionat], the IC50 is 701 nM.
Still for that read-out and setting: the value for `CCCCCCCCCCC[C@@H](C[C@@H]1OC(=O)[C@H]1CCCCCC)OC(=O)CC(N)=O` [Beispiel 3c, 2-Carbamoylessigsäure-(S)-1-[[(2S,3S)-3-hexyl-4-oxo-2-oxetanyl]methyl]dodecylester] was 887 nM; that for `CCCCCCCCCCC[C@@H](C[C@@H]1OC(=O)[C@H]1CCCCCC)OC(=O)C1(C(N)=O)CCCCC1` [Beispiel 3g, (S)-1-[[(2S,3S)-3-Hexyl-4-oxo-2-oxetanyl]methyl]dodecyl-1-carbamoylcydohexancarboxylat] was 579 nM; that for `CCCCCCCCCCC[C@@H](C[C@@H]1OC(=O)[C@H]1CCCCCC)OC(=O)C(CC(C)C)C(N)=O` (mixture of isomers) [Beispiel 3f, (S)-1-[[(2S,3S)-3-Hexyl-4-oxo-2-oxetanyl]methyl]dodecyl-(RS)-2-carbamoyl-4-methylvalerat] was 167 nM.
The same measure, in the same setting: for `CCCCCCCCCCC[C@@H](C[C@@H]1OC(=O)[C@H]1CCCCCC)OC(=O)C(CCC)C(N)=O` (mixture of isomers) [Beispiel 2d, (S)-1-[[(2S,3S)-3-Hexyl-4-oxo-2-oxetanyl]methyl]-dodecyl-(RS) -2-carbamoylvalerat] the value was 249 nM.
Same read-out and setting: for `CCCCCCCCCCCCCCCCC[C@@H](C[C@@H]1OC(=O)[C@H]1CC)OC(=O)C1(C(N)=O)OCCO1` [Beispiel 2f, (S)-1-[[(2S,3S)-3-Aethyl-4-oxo-2-oxetanyl]-methyl]octadecyl-2-carbamoyl-1,3-dioxolan-2-carboxylat] the value was 894 nM; for `CCCCC/C=C\C/C=C\CCCCCCC[C@@H](C[C@@H]1OC(=O)[C@H]1CC)OC(=O)C(C(N)=O)C(C)C` (single isomer, unassigned) [Beispiel 2g1], 103 nM; for `CCCCCCCCCCCCCCCCC[C@@H](C[C@@H]1OC(=O)[C@H]1CC)OC(=O)C1(C(N)=O)CCCC1` [Beispiel 43, (S)-1-[[(2S,3S)-3-Aethyl-4-oxo-2-oxetanyl]methyl]octadecyl-1-carbamoylcyclopentancarboxylat], 230 nM.
In the case of `CCCCCCCCCCC[C@@H](C[C@@H]1OC(=O)[C@H]1CCCCCC)OC(=O)C(CC)C(N)=O` (stereo partly drawn) [Beispiel 3j, (S)-1-[[(2S,3S)-3-Hexyl-4-oxo-2-oxetanyl]methyl]dodecyl-(RS)-2-äthylmalonamat], the IC50 was 342 nM.
The same measure, in the same setting: the value for `CCCCCCCCCCC[C@@H](C[C@@H]1OC(=O)[C@H]1CCCCCC)OC(=O)CC(=O)NC` [Beispiel 3e, (S)-1-[[(2S,3S)-3-Hexyl-4-oxo-2-oxetanyl]methyl]dodecyl -N-methylmalonamat] was 3110 nM.
The same measure, in the same setting: for `CCCCCCCCCCCCCCCCC[C@@H](C[C@@H]1OC(=O)[C@H]1CC)OC(=O)C(CCC)C(N)=O` (stereo partly drawn) [Beispiel 2e, (S)-1-[[(2S,3S)-3-Aethyl-4-oxo-2-oxetanyl]-methyl]octadecyl-(RS)-2-carbamoylvalerat] the value was 100 nM; for `CCCCCCCCCCC[C@@H](C[C@H]1OC(=O)[C@@H]1Cc1ccccc1)OC(=O)C(C(N)=O)C(C)C` (single isomer, unassigned) [Beispiel 7b], 162 nM.
Same read-out and setting: the value for `CCCCCCCCCCCCCCCCC[C@@H](C[C@@H]1OC(=O)[C@H]1CC)OC(=O)C(C(N)=O)C(C)C` (single isomer, unassigned) [Beispiel 1b] was 49 nM.
Consider `CCCCCCCCCCC[C@@H](C[C@@H]1OC(=O)[C@H]1CCCCCC)OC(=O)C(Cc1ccccc1)C(N)=O` (stereo partly drawn) [Beispiel 45, (S)-1-[[(2S,3S)-3-Hexyl-4-oxo-2-oxetanyl]methyl]dodecyl-(RS)-2-benzylmalonomat], for which the IC50 is 88.7 nM.
Same read-out and setting: the value for `CCCCCCCCCCC[C@@H](C[C@@H]1OC(=O)[C@H]1CCCCCC)OC(=O)C(CCCC)C(N)=O` (mixture of isomers) [Beispiel 3k, (S)-1-[[(2S,3S)-3-Hexyl-4-oxo-2-oxetanyl]methyl]dodecyl-(RS)-2-butylmalonamat] was 242 nM.
